BindingDB's records for patent US11547697 (Millennium Pharmaceuticals, 2023)

Legend:
Assay in all cases: Inhibition Assay of PI3K
[1] = target: Phosphatidylinositol 4,5-bisphosphate 3-kinase catalytic subunit beta isoform (Homo sapiens, UniProt P42338)
[2] = target: T1, Phosphatidylinositol 4,5-bisphosphate 3-kinase catalytic subunit delta isoform (Homo sapiens, UniProt O00329)
T1 sequence (O00329 whole entry): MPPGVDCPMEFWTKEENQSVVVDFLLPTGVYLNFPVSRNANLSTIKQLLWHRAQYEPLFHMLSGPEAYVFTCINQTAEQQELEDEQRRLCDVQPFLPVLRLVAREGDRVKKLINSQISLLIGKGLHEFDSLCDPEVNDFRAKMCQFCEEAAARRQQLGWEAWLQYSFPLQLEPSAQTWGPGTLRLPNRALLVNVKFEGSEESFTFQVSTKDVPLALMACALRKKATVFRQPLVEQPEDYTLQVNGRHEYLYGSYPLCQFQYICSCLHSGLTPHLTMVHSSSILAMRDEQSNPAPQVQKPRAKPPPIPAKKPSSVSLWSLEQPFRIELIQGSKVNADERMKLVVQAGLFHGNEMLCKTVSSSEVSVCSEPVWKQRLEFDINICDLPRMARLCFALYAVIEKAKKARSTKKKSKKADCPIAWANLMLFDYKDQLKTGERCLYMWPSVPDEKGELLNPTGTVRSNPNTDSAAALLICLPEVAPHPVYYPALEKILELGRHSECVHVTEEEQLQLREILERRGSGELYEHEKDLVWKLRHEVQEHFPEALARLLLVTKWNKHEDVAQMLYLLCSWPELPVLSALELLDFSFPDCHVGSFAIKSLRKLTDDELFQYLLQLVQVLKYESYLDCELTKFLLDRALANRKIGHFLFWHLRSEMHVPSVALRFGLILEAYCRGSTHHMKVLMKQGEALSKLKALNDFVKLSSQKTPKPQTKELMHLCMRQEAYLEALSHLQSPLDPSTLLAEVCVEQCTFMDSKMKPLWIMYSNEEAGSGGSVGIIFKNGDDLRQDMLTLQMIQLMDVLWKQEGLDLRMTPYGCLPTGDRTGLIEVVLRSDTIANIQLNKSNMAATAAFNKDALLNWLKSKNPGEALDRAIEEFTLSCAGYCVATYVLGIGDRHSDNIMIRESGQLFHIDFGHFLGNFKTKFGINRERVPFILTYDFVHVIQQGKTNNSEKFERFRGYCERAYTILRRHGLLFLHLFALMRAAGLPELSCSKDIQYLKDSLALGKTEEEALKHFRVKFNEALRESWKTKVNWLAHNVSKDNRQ

[3] = target: Phosphatidylinositol 4,5-bisphosphate 3-kinase catalytic subunit gamma isoform (Homo sapiens, UniProt P48736)
[4] = target: Phosphatidylinositol 4,5-bisphosphate 3-kinase catalytic subunit alpha isoform (Homo sapiens, UniProt P42336)

Measured: IC50

Phosphatidylinositol 4,5-bisphosphate 3-kinase catalytic subunit alpha isoform, sequence (P42336 whole entry, canonical isoform): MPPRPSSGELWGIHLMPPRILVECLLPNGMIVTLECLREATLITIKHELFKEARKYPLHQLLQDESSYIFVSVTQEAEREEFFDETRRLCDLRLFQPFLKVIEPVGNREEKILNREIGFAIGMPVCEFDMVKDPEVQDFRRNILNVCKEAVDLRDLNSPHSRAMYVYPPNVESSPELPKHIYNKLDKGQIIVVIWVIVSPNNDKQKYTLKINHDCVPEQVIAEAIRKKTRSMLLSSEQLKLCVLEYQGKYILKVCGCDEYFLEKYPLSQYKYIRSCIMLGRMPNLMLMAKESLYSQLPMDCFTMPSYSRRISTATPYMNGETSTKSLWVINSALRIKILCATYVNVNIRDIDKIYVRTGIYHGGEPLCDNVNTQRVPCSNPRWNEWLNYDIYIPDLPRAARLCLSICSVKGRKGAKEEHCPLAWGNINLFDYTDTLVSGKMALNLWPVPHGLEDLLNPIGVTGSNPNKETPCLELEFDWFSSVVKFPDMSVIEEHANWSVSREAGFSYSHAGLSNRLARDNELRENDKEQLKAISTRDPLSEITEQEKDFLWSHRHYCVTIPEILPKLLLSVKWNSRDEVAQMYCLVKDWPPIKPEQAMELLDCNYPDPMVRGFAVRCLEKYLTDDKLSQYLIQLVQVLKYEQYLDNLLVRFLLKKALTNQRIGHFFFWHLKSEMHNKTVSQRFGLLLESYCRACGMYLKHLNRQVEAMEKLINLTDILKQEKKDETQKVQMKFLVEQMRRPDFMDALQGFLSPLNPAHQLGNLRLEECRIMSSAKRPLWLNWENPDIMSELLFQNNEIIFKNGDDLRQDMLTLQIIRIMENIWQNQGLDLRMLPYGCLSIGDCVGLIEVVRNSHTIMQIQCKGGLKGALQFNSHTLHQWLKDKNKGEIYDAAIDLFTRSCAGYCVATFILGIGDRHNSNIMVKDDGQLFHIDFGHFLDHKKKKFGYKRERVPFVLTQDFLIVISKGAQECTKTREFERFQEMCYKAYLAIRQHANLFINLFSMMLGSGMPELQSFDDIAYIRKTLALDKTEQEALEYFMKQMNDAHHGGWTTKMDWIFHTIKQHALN
Phosphatidylinositol 4,5-bisphosphate 3-kinase catalytic subunit gamma isoform, sequence (P48736 whole entry, canonical isoform): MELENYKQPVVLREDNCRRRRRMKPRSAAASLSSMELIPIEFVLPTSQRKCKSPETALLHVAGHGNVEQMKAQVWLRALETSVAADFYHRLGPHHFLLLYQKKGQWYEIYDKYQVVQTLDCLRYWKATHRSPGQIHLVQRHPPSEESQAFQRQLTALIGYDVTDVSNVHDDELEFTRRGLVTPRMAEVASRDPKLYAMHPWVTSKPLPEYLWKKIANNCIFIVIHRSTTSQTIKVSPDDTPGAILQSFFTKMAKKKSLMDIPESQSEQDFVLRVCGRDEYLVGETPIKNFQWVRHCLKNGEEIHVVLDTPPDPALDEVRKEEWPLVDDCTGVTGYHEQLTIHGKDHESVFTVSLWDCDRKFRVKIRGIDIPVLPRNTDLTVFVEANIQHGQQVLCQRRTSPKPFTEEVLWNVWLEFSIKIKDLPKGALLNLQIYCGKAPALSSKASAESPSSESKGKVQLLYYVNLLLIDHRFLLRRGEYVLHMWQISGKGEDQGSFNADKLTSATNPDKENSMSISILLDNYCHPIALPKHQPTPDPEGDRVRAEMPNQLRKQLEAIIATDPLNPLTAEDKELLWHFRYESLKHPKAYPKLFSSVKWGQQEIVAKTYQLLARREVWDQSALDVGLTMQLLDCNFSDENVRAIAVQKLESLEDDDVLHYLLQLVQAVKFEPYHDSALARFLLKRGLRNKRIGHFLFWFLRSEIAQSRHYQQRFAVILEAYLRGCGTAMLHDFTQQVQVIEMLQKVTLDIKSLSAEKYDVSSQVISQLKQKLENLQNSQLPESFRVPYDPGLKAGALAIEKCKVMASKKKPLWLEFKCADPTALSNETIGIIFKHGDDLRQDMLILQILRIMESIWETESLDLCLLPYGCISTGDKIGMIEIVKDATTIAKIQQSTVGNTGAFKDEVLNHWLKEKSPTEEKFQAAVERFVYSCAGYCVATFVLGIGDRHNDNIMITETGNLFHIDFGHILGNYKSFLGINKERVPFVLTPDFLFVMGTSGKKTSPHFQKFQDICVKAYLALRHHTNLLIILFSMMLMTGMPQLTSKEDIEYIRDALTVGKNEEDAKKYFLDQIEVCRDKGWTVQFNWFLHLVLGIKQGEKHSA
Phosphatidylinositol 4,5-bisphosphate 3-kinase catalytic subunit beta isoform, sequence (P42338 whole entry, canonical isoform): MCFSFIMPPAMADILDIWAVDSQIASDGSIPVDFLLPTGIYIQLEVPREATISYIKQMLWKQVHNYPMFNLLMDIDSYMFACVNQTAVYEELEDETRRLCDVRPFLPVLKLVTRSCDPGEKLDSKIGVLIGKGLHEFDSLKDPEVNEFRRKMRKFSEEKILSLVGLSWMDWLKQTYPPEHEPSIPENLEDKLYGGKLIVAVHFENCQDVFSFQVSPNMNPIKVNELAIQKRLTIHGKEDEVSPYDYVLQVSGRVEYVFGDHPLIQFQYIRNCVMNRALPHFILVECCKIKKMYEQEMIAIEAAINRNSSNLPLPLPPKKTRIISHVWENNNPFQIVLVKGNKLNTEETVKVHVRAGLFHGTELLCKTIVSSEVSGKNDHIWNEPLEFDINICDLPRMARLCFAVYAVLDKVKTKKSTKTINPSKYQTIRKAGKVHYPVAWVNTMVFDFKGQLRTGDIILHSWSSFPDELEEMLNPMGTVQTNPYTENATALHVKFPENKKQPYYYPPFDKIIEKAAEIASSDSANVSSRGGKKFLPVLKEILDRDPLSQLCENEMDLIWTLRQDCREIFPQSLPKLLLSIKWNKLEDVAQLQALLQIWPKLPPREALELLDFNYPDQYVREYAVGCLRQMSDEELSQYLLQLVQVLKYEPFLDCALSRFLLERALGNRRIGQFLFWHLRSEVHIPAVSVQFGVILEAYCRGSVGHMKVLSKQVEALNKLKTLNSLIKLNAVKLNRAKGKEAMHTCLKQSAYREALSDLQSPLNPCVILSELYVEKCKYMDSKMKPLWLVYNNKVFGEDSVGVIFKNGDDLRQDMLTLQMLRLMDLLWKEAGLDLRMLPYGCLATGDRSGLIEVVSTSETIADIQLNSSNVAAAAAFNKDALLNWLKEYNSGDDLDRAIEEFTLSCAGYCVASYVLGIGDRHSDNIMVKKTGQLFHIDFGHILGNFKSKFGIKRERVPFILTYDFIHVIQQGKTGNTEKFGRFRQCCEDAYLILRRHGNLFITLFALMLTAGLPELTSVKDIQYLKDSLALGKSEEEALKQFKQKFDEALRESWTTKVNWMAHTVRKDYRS

CC(=O)Nc1n[nH]c2ccc(-c3ccc4oc(N)nc4c3)cc12 [US11547697, Compound 431]
> 10 µM: all assays above

O=C(c1cnc2ccc(-c3cccc(S(=O)(=O)Nc4ccccc4)c3)cn12)N1CCOCC1 [US11547697, Compound 440]
> 10 µM: all assays above

O=C(c1cnc2ccc(-c3cccc(S(=O)(=O)Nc4cc(F)ccc4F)c3)cn12)N1CCOCC1 [US11547697, Compound 441]
> 10 µM: all assays above

CNS(=O)(=O)c1cccc(-c2ccc3ncc(C(=O)N4CCOCC4)n3c2)c1 [US11547697, Compound 442]
> 10 µM: all assays above

CS(=O)(=O)Nc1cccc(-c2ccc3ncc(C(=O)N4CCOCC4)n3c2)c1 [US11547697, Compound 443]
> 10 µM: all assays above

CNS(=O)(=O)c1cc(-c2ccc3ncc(C(=O)N4CCOCC4)n3c2)ccc1OC [US11547697, Compound 445]
> 10 µM: all assays above

COc1ccc(-c2ccc3ncc(C(=O)N4CCOCC4)n3c2)cc1NS(C)(=O)=O [US11547697, Compound 456]
> 10 µM: all assays above

Nc1n[nH]c2cc(-c3ccc4ncc(C(=O)N5CCOCC5)n4c3)ccc12 [US11547697, Compound 487]
> 10 µM: all assays above

Nc1noc2cc(-c3ccc4ncc(C(=O)N5CCOCC5)n4c3)ccc12 [US11547697, Compound 488]
> 10 µM: all assays above

Nc1n[nH]c2c(-c3ccc4ncc(C(=O)N5CCOCC5)n4c3)cccc12 [US11547697, Compound 490]
> 10 µM: all assays above

Nc1noc2c(-c3ccc4ncc(C(=O)N5CCOCC5)n4c3)cccc12 [US11547697, Compound 491]
> 10 µM: all assays above

O=C(c1cnc2ccc(-c3ccc4c(Nc5ccccc5)nsc4c3)cn12)N1CCOCC1 [US11547697, Compound 505]
> 10 µM: all assays above

Cc1cc2ncc(C(=O)N3CCOCC3)n2cc1-c1ccc2oc(N)nc2c1 [US11547697, Compound 507]
> 10 µM: all assays above

O=C(c1cnc2ccc(-c3ccc4c(Nc5ccccc5)noc4c3)cn12)N1CCOCC1 [US11547697, Compound 509]
> 10 µM: all assays above

CC(C)N1CCC(n2cnc3ccc(-c4cncc(NS(C)(=O)=O)c4)cc3c2=O)CC1 [US11547697, Compound 520]
> 10 µM: all assays above
